Test results: patent US11492347B2 (ENYO PHARMA, priority 2018, dated 2022)
Where a name gives a salt, the structure may show the parent alone.

The molecules below were run on H1N1 (influenza A/New Caledonia/20/99) (assay: microbe, parasite or virus in culture). Details: H1N1, A549, 48 h.
Format: cell-based

**Q.** How did the IC50 turn out when `CC1(C)CCc2sc(NC(=O)c3ccccc3)c(C(=O)O)c2C1` [Compound #26, 2-Benzamido-5,5-dimethyl-6,7-dihydro-4H-benzothiophene-3-carboxylic acid] was run?
**A.** 84.9 nM

**Q.** Which IC50 does the source give for `COc1ccc(C(=O)Nc2sc3c(c2C(=O)O)CC(C)(C)CC3)cc1OC` [Compound #27, 2-[(3,4-Dimethoxybenzoyl)amino]-5,5-dimethyl-6,7-dihydro-4H-benzothiophene-3-carboxylic acid] here?
**A.** 40 nM

**Q.** `O=C(Nc1sc2c(c1C(=O)O)C1CCC2C1)c1ccccc1` (stereo not shown) [Compound #28, 2-Benzamido-4,5,6,7-tetrahydro-4,7-methanobenzo[b]thiophene-3-carboxylic acid] was tested. Which IC50 did it give?
**A.** 1270 nM

**Q.** With `O=C(Nc1sc2c(c1C(=O)O)CCC1(CC1)C2)c1ccccc1` [Compound #29, 2-Benzamidospiro[5,7-dihydro-4H-benzothiophene-6,1′-cyclopropane]-3-carboxylic acid] as the molecule, how does the IC50 read?
**A.** 90 nM

**Q.** How did the IC50 turn out when `COc1ccc(C(=O)Nc2sc3c(c2C(=O)O)CCC2(CC2)C3)cc1OC` [Compound #30, 2-[(3,4-Dimethoxybenzoyl)amino]spiro[5,7-dihydro-4H-benzothiophene-6,1′-cyclopropane]-3-carboxylic acid] was run?
**A.** 70 nM

**Q.** Which IC50 does the source give for `O=C(Nc1sc2c(c1C(=O)O)CCC1(CC1)C2)c1ccc(N2CCOCC2)cc1` [Compound #31, 2-[(4-Morpholinobenzoyl)amino]spiro[5,7-dihydro-4H-benzothiophene-6,1′-cyclopropane]-3-carboxylic acid] here?
**A.** 100 nM

**Q.** With `O=C(Nc1sc2c(c1C(=O)O)CCC1(CC1)C2)c1ccc(F)cc1` [Compound #32, 2-[(4-Fluorobenzoyl)amino]spiro[5,7-dihydro-4H-benzothiophene-6,1′-cyclopropane]-3-carboxylic acid] as the molecule, how does the IC50 read?
**A.** 160 nM

**Q.** For `CC1(C)Cc2c(sc(NC(=O)c3ccc(N4CCC(O)CC4)cc3)c2C(=O)O)C(C)(C)C1` [Compound #34, 2-[[4-(4-Hydroxy-1-piperidyl)benzoyl]amino]-5,5,7,7-tetramethyl-4,6-dihydrobenzothiophene-3-carboxylic acid], which IC50 is on record?
**A.** 113 nM

**Q.** With `COc1ccc(C(=O)Nc2sc3c(c2C(=O)O)C(C)(C)CC3)cc1OC` [Compound #38, 2-[(3,4-Dimethoxybenzoyl)amino]-4,4-dimethyl-5,6-dihydrocyclopenta[b]thiophene-3-carboxylic acid] as the molecule, how does the IC50 read?
**A.** 339 nM

**Q.** With `CC1(C)CCc2sc(NC(=O)c3ccc(OC(F)F)cc3)c(C(=O)O)c21` [Compound #39, 2-[[4-(Difluoromethoxy)benzoyl]amino]-4,4-dimethyl-5,6-dihydrocyclopenta[b]thiophene-3-carboxylic acid] as the molecule, how does the IC50 read?
**A.** 277 nM

**Q.** How did the IC50 turn out when `CC1(C)CCc2sc(NC(=O)c3ccc(OC(F)(F)F)cc3)c(C(=O)O)c21` [Compound #40, 4,4-Dimethyl-2-[[4-(trifluoromethoxy)benzoyl]amino]-5,6-dihydrocyclopenta[b]thiophene-3-carboxylic acid] was run?
**A.** 230 nM

**Q.** With `CC1(C)CCc2sc(NC(=O)c3ccc(N4CCOCC4)cc3)c(C(=O)O)c21` [Compound #41, 4,4-Dimethyl-2-[(4-morpholinobenzoyl)amino]-5,6-dihydrocyclopenta[b]thiophene-3-carboxylicacid] as the molecule, how does the IC50 read?
**A.** 105 nM

**Q.** How did the IC50 turn out when `CC1(C)CCCc2sc(NC(=O)c3ccccc3)c(C(=O)O)c21` [Compound #42, 2-Benzamido-4,4-dimethyl-6,7-dihydro-5H-benzothiophene-3-carboxylic acid] was run?
**A.** 192 nM

**Q.** With `CC1CC(C)(C)c2sc(NC(=O)c3ccccc3)c(C(=O)O)c21` (stereo not shown) [Compound #43, 2-Benzamido-4,6,6-trimethyl-4,5-dihydrocyclopenta[b]thiophene-3-carboxylic acid] as the molecule, how does the IC50 read?
**A.** 280 nM

**Q.** For `CC1CC(C)(C)Cc2sc(NC(=O)c3ccccc3)c(C(=O)O)c21` (stereo not shown) [Compound #44, 2-Benzamido-4,6,6-trimethyl-5,7-dihydro-4H-benzothiophene-3-carboxylic acid], which IC50 is on record?
**A.** 90 nM

**Q.** For `CC1(C)Cc2c(sc(NC(=O)c3ccc(NCC4COC4)cc3)c2C(=O)O)C(C)(C)C1` [Compound #59, 5,5,7,7-Tetramethyl-2-[[4-(oxetan-3-ylmethylamino)benzoyl]amino]-4,6-dihydrobenzothiophene-3-carboxylic acid], which IC50 is on record?
**A.** 10 nM

**Q.** For `CC1(C)Cc2c(sc(NC(=O)c3ccc(NC4CCOC4)cc3)c2C(=O)O)C(C)(C)C1` (stereo not shown) [Compound #61, 5,5,7,7-Tetramethyl-2-[[4-(tetrahydrofuran-3-ylamino)benzoyl]amino]-4,6-dihydrobenzothiophene-3-carboxylic acid], which IC50 is on record?
**A.** 27.9 nM

**Q.** How did the IC50 turn out when `CC(=O)N1CCC(Nc2ccc(C(=O)Nc3sc4c(c3C(=O)O)CC(C)(C)CC4(C)C)cc2)CC1` [Compound #63, 2-[[4-[(1-Acetyl-4-piperidyl)amino]benzoyl]amino]-5,5,7,7-tetramethyl-4,6-dihydrobenzothiophene-3-carboxylic acid] was run?
**A.** 80 nM

**Q.** Which IC50 does the source give for `COCCNc1ccc(C(=O)Nc2sc3c(c2C(=O)O)C(C)(C)CC3)cc1` [Compound #64, 2-[[4-(2-Methoxyethylamino)benzoyl]amino]-4,4-dimethyl-5,6-dihydrocyclopenta[b]thiophene-3-carboxylicacid] here?
**A.** 90 nM

**Q.** For `CC1(C)CCc2sc(NC(=O)c3ccc(N4CCOCC4)nc3)c(C(=O)O)c2C1` [Compound #65, 5,5-Dimethyl-2-[(6-morpholinopyridine-3-carbonyl)amino]-6,7-dihydro-4H-benzothiophene-3-carboxylic acid], which IC50 is on record?
**A.** 200 nM

**Q.** For `CC1(C)CCc2sc(NC(=O)c3ccc(N4CCC(O)CC4)cc3)c(C(=O)O)c21` [Compound #78, 2-[[4-(4-Hydroxy-1-piperidyl)benzoyl]amino]-4,4-dimethyl-5,6-dihydrocyclopenta[b]thiophene-3-carboxylic acid], which IC50 is on record?
**A.** 290 nM

**Q.** How did the IC50 turn out when `CN1CCN(c2ccc(C(=O)Nc3sc4c(c3C(=O)O)CC(C)(C)CC4(C)C)cc2)CC1` [Compound #80, 5,5,7,7-Tetramethyl-2-[[4-(4-methylpiperazin-1-yl)benzoyl]amino]-4,6-dihydrobenzothiophene-3-carboxylic acid] was run?
**A.** 310 nM

**Q.** For `CC1(C)Cc2c(sc(NC(=O)c3ccccn3)c2C(=O)O)C(C)(C)C1` [Compound #90, 5,5,7,7-Tetramethyl-2-(pyridine-2-carbonylamino)-4,6-dihydrobenzothiophene-3-carboxylic acid], which IC50 is on record?
**A.** 600 nM

**Q.** For `COc1ccc(C(=O)Nc2sc3c(c2C(=O)O)CCC(C)(C)C3)nc1OC` [Compound #94, 2-[(5,6-Dimethoxypyridine-2-carbonyl)amino]-6,6-dimethyl-5,7-dihydro-4H-benzothiophene-3-carboxylic acid], which IC50 is on record?
**A.** 660 nM

**Q.** For `CC1(C)CCc2c(sc(NC(=O)c3ccccn3)c2C(=O)O)C1` [Compound #96, 6,6-Dimethyl-2-(pyridine-2-carbonylamino)-5,7-dihydro-4H-benzothiophene-3-carboxylic acid], which IC50 is on record?
**A.** 800 nM

**Q.** With `CC1(C)CCc2sc(NC(=O)c3cccc(OC(F)F)c3)c(C(=O)O)c21` [Compound #98, 2-[[3-(Difluoromethoxy)benzoyl]amino]-4,4-dimethyl-5,6-dihydrocyclopenta[b]thiophene-3-carboxylic acid] as the molecule, how does the IC50 read?
**A.** 800 nM

**Q.** `Cc1ccccc1C(=O)Nc1sc2c(c1C(=O)O)CCC(C#N)(c1ccccc1)C2` (stereo not shown) [Compound #105, 6-Cyano-2-[(2-methylbenzoyl)amino]-6-phenyl-5,7-dihydro-4H-benzothiophene-3-carboxylic acid] was tested. Which IC50 did it give?
**A.** 1080 nM

**Q.** With `O=C(Nc1sc2c(c1C(=O)O)CCC(F)(F)C2)c1ccccc1` [Compound #117, 2-Benzamido-6,6-difluoro-5,7-dihydro-4H-benzothiophene-3-carboxylic acid] as the molecule, how does the IC50 read?
**A.** 1900 nM

**Q.** With `CC1(C)Cc2c(sc(NC(=O)c3ccc(NC4CCNCC4)cc3)c2C(=O)O)C(C)(C)C1` [Compound #131, hydrochloride salt] as the molecule, how does the IC50 read?
**A.** 350 nM

**Q.** Which IC50 does the source give for `CC(=O)N1CC(Nc2ccc(C(=O)Nc3sc4c(c3C(=O)O)CC(C)(C)CC4(C)C)cc2)C1` [Compound #133, 2-[[4-[(1-Acetylazetidin-3-yl)amino]benzoyl]amino]-5,5,7,7-tetramethyl-4,6-dihydrobenzothiophene-3-carboxylic acid] here?
**A.** 750 nM

**Q.** For `CC1(C)Cc2c(sc(NC(=O)c3ccc(NC4COC4)cc3)c2C(=O)O)C(C)(C)C1` [Compound #139, 5,5,7,7-Tetramethyl-2-[[4-(oxetan-3-ylamino)benzoyl]amino]-4,6-dihydrobenzothiophene-3-carboxylic acid], which IC50 is on record?
**A.** 11 nM

**Q.** For `COCCCNc1ccc(C(=O)Nc2sc3c(c2C(=O)O)CC(C)(C)CC3(C)C)cc1` [Compound #140, 2-[[4-(3-Methoxypropylamino)benzoyl]amino]-5,5,7,7-tetramethyl-4,6-dihydrobenzothiophene-3-carboxylic acid], which IC50 is on record?
**A.** 3.4 nM

**Q.** For `CC1(C)Cc2c(sc(NC(=O)c3ccc(NCC4CCCOC4)cc3)c2C(=O)O)C(C)(C)C1` (stereo not shown) [Compound #141, 5,5,7,7-Tetramethyl-2-[[4-(tetrahydropyran-3-ylmethylamino)benzoyl]amino]-4,6-dihydrobenzothiophene-3-carboxylic acid], which IC50 is on record?
**A.** 3.3 nM

**Q.** With `CC1(C)Cc2c(sc(NC(=O)c3ccc(NC4CCCOC4)cc3)c2C(=O)O)C(C)(C)C1` (stereo not shown) [Compound #142, 5,5,7,7-Tetramethyl-2-[[4-(tetrahydropyran-3-ylamino)benzoyl]amino]-4,6-dihydrobenzothiophene-3-carboxylic acid] as the molecule, how does the IC50 read?
**A.** 6.4 nM

**Q.** For `CC1(C)Cc2c(sc(NC(=O)c3ccc(N4CC5(COC5)C4)cc3)c2C(=O)O)C(C)(C)C1` [Compound #143, 5,5,7,7-Tetramethyl-2-[[4-(2-oxa-6-azaspiro[3.3]heptan-6-yl)benzoyl]amino]-4,6-dihydrobenzothiophene-3-carboxylic acid], which IC50 is on record?
**A.** 160 nM

**Q.** How did the IC50 turn out when `CC1(C)Cc2c(sc(NC(=O)c3ccc(N4CCC5(CC4)COC5)cc3)c2C(=O)O)C(C)(C)C1` [Compound #144, 5,5,7,7-Tetramethyl-2-[[4-(2-oxa-7-azaspiro[3.5]nonan-7-yl)benzoyl]amino]-4,6-dihydrobenzothiophene-3-carboxylic acid] was run?
**A.** 35 nM

**Q.** How did the IC50 turn out when `COCCNc1ccc(C(=O)Nc2sc3c(c2C(=O)O)C(C)CC(C)(C)C3)cc1` (stereo not shown) [Compound #145, 2-1-[[4-(2-Methoxyethylamino)benzoyl]amino]-4,6,6-trimethyl-5,7-dihydro-411-benzothiophene-3-carboxylic acid] was run?
**A.** 32 nM
